Measured values reported in BigSolDB 2.1.

Conditions: in acetone

CC[C@H](C)C(=O)O[C@H]1C[C@@H](C)C=C2C=C[C@H](C)[C@H](CC[C@@H]3C[C@@H](O)CC(=O)O3)[C@H]21
Conditions | solubility (mole fraction)
278.65 K | 0.00637
283.2 K | 0.00742
288.2 K | 0.00869
293.25 K | 0.0104
298.75 K | 0.0123
303.95 K | 0.0157
308.25 K | 0.0183
313.25 K | 0.0226
318.15 K | 0.0272
322.65 K | 0.0321
